pIC50: −log10 of the molar value.
Biological target: T1, Nuclear receptor ROR-gamma (Homo sapiens, UniProt P51449)
T1 sequence (P51449 whole entry): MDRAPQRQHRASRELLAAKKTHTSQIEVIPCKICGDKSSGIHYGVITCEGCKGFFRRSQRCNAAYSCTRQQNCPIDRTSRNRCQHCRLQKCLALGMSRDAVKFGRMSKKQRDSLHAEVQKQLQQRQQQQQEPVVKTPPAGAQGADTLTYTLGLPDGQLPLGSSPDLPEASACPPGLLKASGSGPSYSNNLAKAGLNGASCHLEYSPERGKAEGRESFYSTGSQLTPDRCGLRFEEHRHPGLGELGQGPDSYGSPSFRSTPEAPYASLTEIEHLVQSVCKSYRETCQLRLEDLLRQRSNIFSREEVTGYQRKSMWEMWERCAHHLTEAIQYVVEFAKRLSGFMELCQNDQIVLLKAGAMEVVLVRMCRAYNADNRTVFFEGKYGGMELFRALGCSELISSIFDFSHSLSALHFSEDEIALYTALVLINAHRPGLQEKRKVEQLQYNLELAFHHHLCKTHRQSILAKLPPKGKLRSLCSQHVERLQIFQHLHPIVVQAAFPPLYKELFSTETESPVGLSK
Assay: ROR gamma t 5xRORE Assay in Jurkat Cells (Assay 2): Compounds of the present invention were tested for ROR gamma inverse agonist activity in a cell-based, transcriptional activity assay. […] (Promega, Cat. # N1021) using KpnI and HindIII restriction sites. […] Luciferase activity in the conditioned supernatants was determined with NanoGlo assay reagents (Promega, Cat.# N1130).

Compound: CCS(=O)(=O)c1ccc(C2(NC(=O)c3cnc4c(c3)CN(Cc3ccc(C(F)(F)F)cc3)[C@H]4C(C)C)CC2)nc1
- pIC50: > 7.00
